Source: paper PMC11882969 (Nature Communications, 2025)
Values joined by “and” are separate entries in the source; they are usually repeats but may differ in a detail not shown here. Identical values can stand only once. Like-named read-outs stand apart in the source and are kept apart here.

Columns and labels:
hCB1 = hCB1 (Homo sapiens, UniProt P21554); assay: Lance Ultra cAMP accumulation assay, CHO cells; type: cell-based; set-up: expressed in transfected cells; conditions: for normalised cAMP response, concentration-response (Figure2f), replicate values: log[Compound;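 as to all read-outs here: human CB1R stably expressed in CHO cells, ligands co-incubated with forskolin at room temperature, read-out is lowering of forskolin-stimulated cAMP accumulation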
Sequence of hCB1 (P21554 whole entry): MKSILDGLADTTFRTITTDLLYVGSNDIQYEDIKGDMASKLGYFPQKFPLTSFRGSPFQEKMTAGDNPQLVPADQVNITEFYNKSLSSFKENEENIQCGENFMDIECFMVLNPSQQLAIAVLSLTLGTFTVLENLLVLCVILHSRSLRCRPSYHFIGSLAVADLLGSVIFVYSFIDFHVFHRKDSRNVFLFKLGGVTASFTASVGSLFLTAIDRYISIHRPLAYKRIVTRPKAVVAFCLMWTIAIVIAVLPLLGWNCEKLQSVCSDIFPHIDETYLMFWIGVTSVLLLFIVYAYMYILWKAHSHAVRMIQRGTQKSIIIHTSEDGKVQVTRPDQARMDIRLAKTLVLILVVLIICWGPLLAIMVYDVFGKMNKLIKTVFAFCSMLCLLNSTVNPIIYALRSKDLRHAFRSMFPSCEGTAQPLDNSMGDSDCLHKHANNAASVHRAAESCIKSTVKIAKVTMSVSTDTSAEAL

CB1 (rCB1) = CB1 (rCB1) (Rattus norvegicus, UniProt P20272); assay: Radioligand competition binding, [3H]-CP-55,940, rat brain membranes; conditions: for radioligand binding, competition curve point (normalized): log[drug], replicate columns
Sequence of CB1 (rCB1) (P20272 whole entry): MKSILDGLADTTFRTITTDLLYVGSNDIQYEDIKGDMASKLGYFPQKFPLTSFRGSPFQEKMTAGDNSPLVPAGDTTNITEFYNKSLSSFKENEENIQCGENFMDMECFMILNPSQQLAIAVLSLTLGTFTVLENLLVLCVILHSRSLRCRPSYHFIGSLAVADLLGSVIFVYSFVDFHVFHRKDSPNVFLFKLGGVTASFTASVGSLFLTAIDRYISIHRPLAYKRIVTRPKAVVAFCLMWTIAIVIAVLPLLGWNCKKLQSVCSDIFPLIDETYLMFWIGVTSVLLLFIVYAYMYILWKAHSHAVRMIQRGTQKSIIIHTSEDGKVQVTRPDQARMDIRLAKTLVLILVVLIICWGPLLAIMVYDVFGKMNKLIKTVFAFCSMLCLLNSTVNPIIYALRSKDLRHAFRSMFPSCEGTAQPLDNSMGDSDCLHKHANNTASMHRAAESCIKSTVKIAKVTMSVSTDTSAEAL

Q: With Cc1cc(C(=O)NC(C)(c2ccco2)c2ccco2)nn1-c1cccc(C(F)(F)F)c1 [‘4936] as the molecule, how does the EC50 (hCB1) read?
A: 4.79 nM

Q: And the Emax (hCB1; CHO)?
A: 65%

Q: What about the “agonism, inhibition of forskolin-stimulated cAMP” value (hCB1; hCB1-expressing cells, in words) of the same molecule?
A: agonists

Q: And the “normalised cAMP response, concentration-response (Figure2f), replicate values” (“normalised cAMP response” for short) (hCB1; M] -5)?
A: 23.9901 and 17.3183 and 31.2071

Q: What about the “normalised cAMP response” value (hCB1; M] -6) of the same molecule?
A: 35.8451 and 34.6268 and 48.1963

Q: And the “normalised cAMP response” value (hCB1; M] -7)?
A: 34.8754 and 40.2051 and 42.4315

Q: What about the “normalised cAMP response” value (hCB1; M] -8) of the same molecule?
A: 49.8775 and 50.0992 and 49.4868

Q: What about the “normalised cAMP response” value (hCB1; M] -9) of the same molecule?
A: 89.3609 and 84.5102 and 106.905

Q: And the “normalised cAMP response” value (hCB1; M] -10)?
A: 90.3788 and 99.666 and 104.111

Q: And the “normalised cAMP response” value (hCB1; M] -11)?
A: 85.7953 and 85.5262 and 99.9371

Q: What about the “normalised cAMP response” value (hCB1; M] -12) of the same molecule?
A: 103.02 and 108.188 and 110.316

Q: And the Ki (CB1 (rCB1))?
A: 7 nM

Q: What about the “LLE (lipophilic ligand efficiency)” value (CB1 (rCB1); LLE = pIC50 − clogP) of the same molecule?
A: 3.2

Q: What about the “LE (ligand efficiency)” value (CB1 (rCB1); from rCB1 affinity) of the same molecule?
A: 0.37

Q: What about the “pKi [95% CI]” value (CB1 (rCB1); rCB1) of the same molecule?
A: 8.1 [7.9 – 8.4]

Q: What about the “radioligand binding, competition curve point (normalized)” value (shortened to “radioligand binding … (normalized)”) (CB1 (rCB1); rCB1, M = -5.643) of the same molecule?
A: 23.3333 and 16.4729

Q: And the “radioligand binding … (normalized)” value (CB1 (rCB1); rCB1, M = -6.357)?
A: 15.1515 and 4.845

Q: And the “radioligand binding … (normalized)” value (CB1 (rCB1); rCB1, M = -7.07)?
A: 14.5455 and 12.7907

Q: What about the “radioligand binding … (normalized)” value (CB1 (rCB1); rCB1, M = -7.783) of the same molecule?
A: 50 and 46.3178

Q: What about the “radioligand binding … (normalized)” value (CB1 (rCB1); rCB1, M = -8.496) of the same molecule?
A: 103.182 and 83.9147

Q: What about the “radioligand binding … (normalized)” value (CB1 (rCB1); rCB1, M = -9.21) of the same molecule?
A: 89.2442

Q: And the “radioligand binding … (normalized)” value (CB1 (rCB1); rCB1, M = -9.923)?
A: 99.0909 and 86.6279

Q: What about the “radioligand binding … (normalized)” value (CB1 (rCB1); rCB1, M = -10.636) of the same molecule?
A: 105.758 and 87.9845

Q: And the “fold less potent than CP-55,940” value (CB1 (rCB1); rCB1 binding)?
A: 2.5 fold

Q: What about the Ki (CB1 (rCB1); read-out: Ki [95% CI], rCB1, [3H]-CP-55,940) of the same molecule?
A: 7.5 nM

Q: And the “fold improvement in CB1R affinity” value (CB1 (rCB1); vs parent hit or analog without the change)?
A: approximately 6 fold
